For 6 compounds, MEC results are on record in patent US20160176880A1, “SUBSTITUTED IMIDAZO[1,2-A]PYRAZINECARBOXAMIDES AND USE THEREOF” (BAYER PHARMA AKTIENGESELLSCHAFT, priority 2013, published 2016).

The target in this assay is T1, recombinant guanylate cyclase reporter cell line (Rattus norvegicus, UniProt P19686+P20595).
T1 construct: expressed in transfected cells
T1 sequence (P19686 1-690): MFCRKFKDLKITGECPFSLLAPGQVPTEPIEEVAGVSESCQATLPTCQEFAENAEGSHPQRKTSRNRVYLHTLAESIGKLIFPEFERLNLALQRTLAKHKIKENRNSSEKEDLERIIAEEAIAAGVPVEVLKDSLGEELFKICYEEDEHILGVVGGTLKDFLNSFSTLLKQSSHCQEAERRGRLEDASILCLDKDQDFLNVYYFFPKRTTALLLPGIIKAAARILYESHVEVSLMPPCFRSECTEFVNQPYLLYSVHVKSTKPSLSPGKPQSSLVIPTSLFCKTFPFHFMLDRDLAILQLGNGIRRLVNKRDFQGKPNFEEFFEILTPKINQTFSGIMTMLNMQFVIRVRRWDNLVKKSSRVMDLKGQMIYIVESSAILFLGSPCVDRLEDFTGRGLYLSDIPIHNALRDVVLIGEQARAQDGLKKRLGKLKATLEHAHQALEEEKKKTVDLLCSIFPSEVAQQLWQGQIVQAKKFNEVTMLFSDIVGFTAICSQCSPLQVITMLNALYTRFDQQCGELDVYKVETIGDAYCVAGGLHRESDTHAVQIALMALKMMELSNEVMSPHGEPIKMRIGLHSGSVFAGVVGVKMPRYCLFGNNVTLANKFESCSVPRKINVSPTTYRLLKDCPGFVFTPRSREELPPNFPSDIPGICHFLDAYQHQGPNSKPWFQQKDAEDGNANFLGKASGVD
T1 sequence (P20595 1-619): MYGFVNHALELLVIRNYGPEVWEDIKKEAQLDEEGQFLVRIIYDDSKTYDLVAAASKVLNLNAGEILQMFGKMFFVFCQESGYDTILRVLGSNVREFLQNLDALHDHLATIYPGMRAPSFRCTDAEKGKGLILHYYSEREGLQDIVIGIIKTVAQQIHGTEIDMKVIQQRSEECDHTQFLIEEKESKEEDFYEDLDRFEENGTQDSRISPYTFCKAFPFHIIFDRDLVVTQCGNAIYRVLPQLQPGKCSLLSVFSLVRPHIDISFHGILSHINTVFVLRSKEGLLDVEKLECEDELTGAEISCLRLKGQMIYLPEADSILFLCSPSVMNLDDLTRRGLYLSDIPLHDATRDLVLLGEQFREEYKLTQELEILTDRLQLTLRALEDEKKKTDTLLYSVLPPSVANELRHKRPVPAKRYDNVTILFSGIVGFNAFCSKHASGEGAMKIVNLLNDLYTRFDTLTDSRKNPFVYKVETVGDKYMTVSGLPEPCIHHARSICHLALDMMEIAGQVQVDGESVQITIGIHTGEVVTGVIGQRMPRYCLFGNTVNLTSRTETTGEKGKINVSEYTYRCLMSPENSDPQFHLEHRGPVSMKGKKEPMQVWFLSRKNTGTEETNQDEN
Kind of assay: Effect on a recombinant guanylate cyclase reporter cell line. It counts as cell-based. The settings on record: MEC = minimum effective concentration; in some cases mean values for individual determinations. The method, then: B-2. Effect on a Recombinant Guanylate Cyclase Reporter Cell Line
The cellular action of the compounds of the invention is determined using a recombinant guanylate cyclase reporter cell line, as described in F. Wunder et al., Anal. Biochem. 339, 104-112 (2005).
Representative MEC values (MEC=minimum effective concentration) for the compounds of the invention are shown in the table below (in some cases as mean values for individual determinations): […]

Regarding `Cc1cn2c(C(=O)NCC(C)(N)CCC(F)(F)F)c(C)nc2c(OCc2c(F)cccc2F)n1` (single isomer, unassigned; enantiomer b) [Example 38, ent-N-(2-Amino-5,5,5-trifluoro-2-methylpentyl)-8-[(2,6-difluorobenzyl)oxy]-2,6-dimethylimidazo[1,2-a]pyrazine-3-carboxamide (enantiomer B)], the MEC was 0.3 µM.

`Cc1cn2c(C(=O)Nc3c(C)nn(CCO)c3C)c(C)nc2c(OCc2c(F)cccc2F)n1` [Example 18, 8-[(2,6-difluorobenzyl)oxy]-N-[1-(2-hydroxyethyl)-3,5-dimethyl-1H-pyrazol-4-yl]-2,6-dimethylimidazo[1,2-a]pyrazine-3-carboxamide]: the MEC turned out to be 3 µM.

On to `Cc1cn2c(C(=O)NCc3ncc[nH]3)c(C)nc2c(OCc2c(F)cccc2F)n1` [Example 25, 8-[(2,6-difluorobenzyl)oxy]-N-(1H-imidazol-2-ylmethyl)-2,6-dimethylimidazo[1,2-a]pyrazine-3-carboxamide], for which the MEC was found to be 3 µM.

With `Cc1cn2c(C(=O)NCc3ccc(Cl)nc3)c(C)nc2c(OCc2c(F)cccc2F)n1` [Example 28, N-[(6-chloropyridin-3-yl)methyl]-8-[(2,6-difluorobenzyl)oxy]-2,6-dimethylimidazo[1,2-a]pyrazine-3-carboxamide], the MEC is 1 µM.

Take `Cc1cn2c(C(=O)NCC(C)(N)C3CC3)c(C)nc2c(OCc2c(F)cccc2F)n1` (racemic) [Example 20, rac-N-(2-amino-2-cyclopropylpropyl)-8-[(2,6-difluorobenzyl)oxy]-2,6-dimethylimidazo[1,2-a]pyrazine-3-carboxamide]: the MEC stood at 3 µM.

`Cc1cn2c(C(=O)NCC(C)(N)CF)c(C)nc2c(OCc2c(F)cccc2F)n1` (single isomer, unassigned; enantiomer b) [Example 37, ent-N-(2-Amino-3-fluoro-2-methylpropyl)-8-[(2,6-difluorobenzyl)oxy]-2,6-dimethylimidazo[1,2-a]pyrazine-3-carboxamide (enantiomer B)]: the MEC is 0.3 µM.
